Patent US12679832B2, “Compounds and their uses as CD38 inhibitors” (Nanjing Immunophage Biotech Co., Ltd., priority 2021, dated 2026)
pIC50: −log10 of the molar value.

Target: T1, hCD38 Enzyme (Homo sapiens, UniProt P28907)
T1 construct: purchased Sino Biological Inc 10818-H08H
T1 sequence (P28907 43-300 limits assumed): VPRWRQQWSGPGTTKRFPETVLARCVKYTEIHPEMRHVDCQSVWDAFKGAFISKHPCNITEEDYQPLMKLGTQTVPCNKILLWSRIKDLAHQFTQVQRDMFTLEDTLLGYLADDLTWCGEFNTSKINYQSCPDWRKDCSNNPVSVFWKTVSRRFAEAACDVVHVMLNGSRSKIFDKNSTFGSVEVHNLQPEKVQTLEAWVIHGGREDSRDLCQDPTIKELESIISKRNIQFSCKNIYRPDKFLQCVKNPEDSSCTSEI
Assay: CD38 hydrolase enzymatic assay
Format: biochemical
Details: rhCD38, ε-NAD substrate, 25° C., point reading time 20 mins; read-out: hCD38 Enzyme inhibition IC50
Experimental: Also, a blank sample was prepared with 50 μl of sucrose buffer and no test compounds.
The dynamic reading was performed at 25° C. with excitation light of 300 nm and emission light of 410 nm on the enzyme marker by contacting the above-prepared rhCD38 enzyme working fluid and the above-prepared solutions of the test compounds disclosed herein or the solution of the control. The readings were recorded for a total of 1 hour, and the data were analyzed with the point reading time of 20 mins.
Fluorescence was recorded by a microplate reader. Individual excel files containing fluorescence data were exported and the results were plotted against various drug concentrations and analyzed in GraphPad Prism 7.0 for concentration curve generation.

pIC50 | SMILES
6.95 | CO[C@H]1CC[C@H](NC(=O)c2cc(-n3ccnc3)ncc2N)CC1 [compound 69, 5-amino-2-(1H-imidazol-1-yl)-N-((1r,4r)-4-methoxycyclohexyl) isonicotinamide]
< 5.00 | CO[C@H]1CC[C@H](NC(=O)c2cc(-n3ccnc3)cc(=O)[nH]2)CC1 [compound 3, 4-(1H-imidazol-1-yl)-N-((1r,4r)-4-methoxycyclohexyl)-6-oxo-1.6-dihydropyridine-2-carboxamide]
7.52 | CNc1cc(C(=O)N[C@H]2CC[C@H](OC)CC2)nc(-n2ccnc2)n1 [compound 24, 2-(1H-imidazol-1-yl)-N-((1r,4r)-4-methoxycyclohexyl)-6-(methylamino)pyrimidine-4-carboxamide]
6.14 | CO[C@H]1CC[C@H](NC(=O)c2cc(-n3ccnc3)nnc2N)CC1 [compound 10, 3-amino-6-(1H-imidazol-1-yl)-N-((1r,4r)-4-methoxycyclohexyl)pyridazine-4-carboxamide]
7.55 | CO[C@H]1CC[C@H](NC(=O)c2cc(C(F)(F)F)nc(-n3ccnc3)n2)CC1 [compound 103, 2-(1H-imidazol-1-yl)-N-((1r,4r)-4-methoxycyclohexyl)-6-(trifluoromethyl) pyrimidine-4-carboxamide]
7.40 | COc1cc(C(=O)N[C@H]2CC[C@H](OC)CC2)nc(-n2ccnc2)c1 [compound 4, 6-(1H-imidazol-1-yl)-4-methoxy-N-((1r,4r)-4-methoxycyclohexyl)picolinamide]
6.27 | CO[C@H]1CC[C@H](NC(=O)c2nc(-n3ccnc3)cnc2N(C)C)CC1 [compound 46, 3-(dimethylamino)-6-(1H-imidazol-1-yl)-N-((1r,4r)-4-methoxycyclohexyl) pyrazine-2-carboxamide]
7.77 | CO[C@H]1CC[C@H](NC(=O)c2nc(-n3ccnc3)ccc2N)CC1 [compound 60, 3-amino-6-(1H-imidazol-1-yl)-N-((1r,4r)-4-methoxycyclohexyl) picolinamide]
7.74 | C[C@H]1CC[C@H](NC(=O)c2cc(C(F)(F)F)nc(-n3ccnc3)n2)CC1 [compound 146, 2-(1H-imidazol-1-yl)-N-((1r,4r)-4-methylcyclohexyl)-6-(trifluoromethyl) pyrimidine-4-carboxamide]
7.08 | O=C(NC1CCOCC1)c1cncc(-n2ccnc2)n1 [compound 32, 6-(1H-imidazol-1-yl)-N-(tetrahydro-2H-pyran-4-yl)pyrazine-2-carboxamide]
< 5.00 | CO[C@H]1CC[C@H](NC(=O)c2cc(-n3ccnc3)cc(C)n2)CC1 [compound 50, 4-(1H-imidazol-1-yl)-N-((1r,4r)-4-methoxycyclohexyl)-6-methylpicolinamide]
7.80 | C[C@H]1CC[C@H](NC(=O)c2cc(OC3COC3)nc(-n3ccnc3)n2)CC1 [Compound 150]
7.31 | COCCO[C@H]1CC[C@H](NC(=O)c2cc(C(F)(F)F)nc(-n3ccnc3)n2)CC1 [compound 157, 2-(1H-imidazol-1-yl)-N-((1r,4r)-4-(2-methoxyethoxy)cyclohexyl)-6-(trifluoromethyl) pyrimidine-4-carboxamide]
5.39 | COc1ccc(C(=O)N[C@H]2CC[C@H](OC)CC2)nc1-n1ccnc1 [compound 74, 6-(1H-imidazol-1-yl)-5-methoxy-N-((1r,4r)-4-methoxycyclohexyl) picolinamide]
5.16 | CO[C@H]1CC[C@H](NC(=O)c2cc(-n3ccnn3)cc3cc[nH]c23)CC1 [compound 54, N-((1r,4r)-4-methoxycyclohexyl)-5-(1H-1,2,3-triazol-1-yl)-1H-indole-7-carboxamide]
7.82 | Nc1ccc(-n2ccnc2)nc1C(=O)NC1CCCCC1 [compound 61, 3-amino-N-cyclohexyl-6-(1H-imidazol-1-yl)picolinamide]
7.04 | O=C(NC1CCOCC1)c1cc(C(F)(F)F)nc(-n2ccnc2)n1 [compound 163, 2-(1H-imidazol-1-yl)-N-(tetrahydro-2H-pyran-4-yl)-6-(trifluoromethyl) pyrimidine-4-carboxamide]
7.55 | CO[C@H]1CC[C@H](NC(=O)c2cc(-c3ccncc3)nc(-n3ccnc3)n2)CC1 [compound 183, 2-(1H-imidazol-1-yl)-N-((1r,4r)-4-methoxycyclohexyl)-6-(pyridin-4-yl) pyrimidine-4-carboxamide]
8.05 | CO[C@H]1CC[C@H](NC(=O)c2cc(C)nc(-n3ccnc3)n2)CC1 [compound 99, 2-(1H-imidazol-1-yl)-N-((1r,4r)-4-methoxycyclohexyl)-6-methylpyrimidine-4-carboxamide]
< 5.00 | CO[C@H]1CC[C@H](NC(=O)c2cccc(-c3ccno3)n2)CC1 [compound 17, 6-(isoxazol-5-yl)-N-((1r,4r)-4-methoxycyclohexyl)picolinamide]
< 5.00 | CO[C@H]1CC[C@H](NC(=O)c2cc(-n3ccnc3)cnc2N)CC1 [compound 59, 2-amino-5-(1H-imidazol-1-yl)-N-((1r,4r)-4-methoxycyclohexyl) nicotinamide]
< 5.00 | CO[C@H]1CC[C@H](NC(=O)c2cc(-c3cncs3)ccc2NC(C)=O)CC1 [compound 6, 2-acetamido-N-((1r,4r)-4-methoxycyclohexyl)-5-(thiazol-5-yl) benzamide]
6.41 | CO[C@H]1CC[C@H](NC(=O)c2nc(-n3ccnc3)ccc2Cl)CC1 [compound 75, 3-chloro-6-(1H-imidazol-1-yl)-N-((1r,4r)-4-methoxycyclohexyl) picolinamide]

The next lines start with the compound.

SMILES | pIC50
O=C(Nc1ccccn1)c1ccnc(-n2ccnc2)n1 [compound 112, 2-(1H-imidazol-1-yl)-N-(pyridin-2-yl)pyrimidine-4-carboxamide] | 7.70
O=C(Nc1cccc(F)c1)c1cc(N2CCCCC2)nc(-n2ccnc2)n1 [compound 101, N-(3-fluorophenyl)-2-(1H-imidazol-1-yl)-6-(piperidin-1-yl)pyrimidine-4-carboxamide] | 7.77
N#Cc1cc(C(=O)Nc2cncnc2)nc(-n2ccnc2)n1 [compound 189, 6-cyano-2-(1H-imidazol-1-yl)-N-(pyrimidin-5-yl)pyrimidine-4-carboxamide] | 7.92
O=C(Nc1cc(F)cc(N2CC[C@H](O)C2)c1)c1cc(C(F)(F)F)nc(-n2ccnc2)n1 [compound 178, (S)-N-(3-fluoro-5-(3-hydroxypyrrolidin-1-yl)phenyl)-2-(1H-imidazol-1-yl)-6-(trifluoromethyl) pyrimidine-4-carboxamide] | 7.76
Cc1ccc(F)cc1NC(=O)c1cc(N2CCCCC2)nc(-n2ccnc2)n1 [compound 137, N-(5-fluoro-2-methylphenyl)-2-(1H-imidazol-1-yl)-6-(piperidin-1-yl)pyrimidine-4-carboxamide] | < 5.00
O=C(Nc1cccc(F)c1)c1ccc(C(F)(F)F)c(-n2ccnc2)n1 [compound 160, N-(3-fluorophenyl)-6-(1H-imidazol-1-yl)-5-(trifluoromethyl) picolinamide] | 6.50
CO[C@H]1CC[C@H](NC(=O)c2cc(OC3CCC3)nc(-n3ccnc3)n2)CC1 [compound 104, 6-cyclobutoxy-2-(1H-imidazol-1-yl)-N-((1r,4r)-4-methoxycyclohexyl)pyrimidine-4-carboxamide] | 7.59
O=C(Nc1cccc(F)c1)c1cc(OC2CCC2)nc(-n2ccnc2)n1 [compound 121, 6-cyclobutoxy-N-(3-fluorophenyl)-2-(1H-imidazol-1-yl)pyrimidine-4-carboxamide] | 8.10
O=C(Nc1ccccc1)c1cncc(-n2ccnc2)n1 [compound 35, 6-(1H-imidazol-1-yl)-N-phenylpyrazine-2-carboxamide] | 8.40
O=C(Nc1cccc(N2CCOCC2)c1)c1cc(C(F)(F)F)nc(-n2ccnc2)n1 [compound 177, 2-(1H-imidazol-1-yl)-N-(3-morpholinophenyl)-6-(trifluoromethyl) pyrimidine-4-carboxamide] | 7.42
O=C(Nc1cc(F)cc(N2CCNCC2)c1)c1cc(C(F)(F)F)nc(-n2ccnc2)n1 [compound 175, N-(3-fluoro-5-(piperazin-1-yl)phenyl)-2-(1H-imidazol-1-yl)-6-(trifluoromethyl) pyrimidine-4-carboxamide] | 7.17
O=C(Nc1cnc(OCCO)nc1)c1cc(C(F)(F)F)nc(-n2ccnc2)n1 [compound 193, N-(2-(2-hydroxyethoxy)pyrimidin-5-yl)-2-(1H-imidazol-1-yl)-6-(trifluoromethyl) pyrimidine-4-carboxamide] | 7.96
O=C(Nc1ccccc1)c1cccc(-n2ccnc2)n1 [compound 81, 6-(1H-imidazol-1-yl)-N-phenylpicolinamide] | 7.82
O=C(Nc1cccc(F)c1)c1nc(-n2ccnc2)ncc1N1CCCCC1 [compound 115, N-(3-fluorophenyl)-2-(1H-imidazol-1-yl)-5-(piperidin-1-yl) pyrimidine-4-carboxamide] | 7.37
O=C(Nc1cccc(F)c1)c1ccnc(-c2ccn[nH]2)n1 [compound 116, N-(3-fluorophenyl)-2-(1H-pyrazol-5-yl)pyrimidine-4-carboxamide] | < 5.00
O=C(Nc1ccccc1Cl)c1ccnc(-n2ccnc2)n1 [compound 85, N-(2-chlorophenyl)-2-(1H-imidazol-1-yl)pyrimidine-4-carboxamide] | 7.54
